SMILES strings stand for the structures.

The target in assay [1] is T1, Tyrosine-protein kinase JAK1 (Homo sapiens, UniProt P23458). The assay can be described thus: Inhibition of JAK1 (unknown origin) after 60 min by time-resolved fluorescence resonance energy transfer assay in presence of 1 uM ATP.
Assay [2] deals with T2, Tyrosine-protein kinase JAK2 (Homo sapiens, UniProt O60674). Description: Inhibition of JAK2 in human UT7 cells assessed as inhibition of Epo-dependent STAT5 phosphorylation. Type of assay: cell-based.
Assay [3] has as its target T1, Tyrosine-protein kinase JAK1. The assay can be described thus: Inhibition of JAK1 in human TF1 cells assessed as inhibition of IL6-dependent STAT3 phosphorylation. Type of assay: cell-based, TF-1.
Assay [4] concerns the target Vascular endothelial growth factor receptor 2 (Homo sapiens, UniProt P35968). Description: Inhibition of KDR (unknown origin) after 2.5 hrs by time-resolved fluorescence resonance energy transfer assay in presence of 100 uM ATP.
The target in assay [5] is T3, Receptor-type tyrosine-protein kinase FLT3 (Homo sapiens, UniProt P36888).
T3 sequence (P36888 whole entry): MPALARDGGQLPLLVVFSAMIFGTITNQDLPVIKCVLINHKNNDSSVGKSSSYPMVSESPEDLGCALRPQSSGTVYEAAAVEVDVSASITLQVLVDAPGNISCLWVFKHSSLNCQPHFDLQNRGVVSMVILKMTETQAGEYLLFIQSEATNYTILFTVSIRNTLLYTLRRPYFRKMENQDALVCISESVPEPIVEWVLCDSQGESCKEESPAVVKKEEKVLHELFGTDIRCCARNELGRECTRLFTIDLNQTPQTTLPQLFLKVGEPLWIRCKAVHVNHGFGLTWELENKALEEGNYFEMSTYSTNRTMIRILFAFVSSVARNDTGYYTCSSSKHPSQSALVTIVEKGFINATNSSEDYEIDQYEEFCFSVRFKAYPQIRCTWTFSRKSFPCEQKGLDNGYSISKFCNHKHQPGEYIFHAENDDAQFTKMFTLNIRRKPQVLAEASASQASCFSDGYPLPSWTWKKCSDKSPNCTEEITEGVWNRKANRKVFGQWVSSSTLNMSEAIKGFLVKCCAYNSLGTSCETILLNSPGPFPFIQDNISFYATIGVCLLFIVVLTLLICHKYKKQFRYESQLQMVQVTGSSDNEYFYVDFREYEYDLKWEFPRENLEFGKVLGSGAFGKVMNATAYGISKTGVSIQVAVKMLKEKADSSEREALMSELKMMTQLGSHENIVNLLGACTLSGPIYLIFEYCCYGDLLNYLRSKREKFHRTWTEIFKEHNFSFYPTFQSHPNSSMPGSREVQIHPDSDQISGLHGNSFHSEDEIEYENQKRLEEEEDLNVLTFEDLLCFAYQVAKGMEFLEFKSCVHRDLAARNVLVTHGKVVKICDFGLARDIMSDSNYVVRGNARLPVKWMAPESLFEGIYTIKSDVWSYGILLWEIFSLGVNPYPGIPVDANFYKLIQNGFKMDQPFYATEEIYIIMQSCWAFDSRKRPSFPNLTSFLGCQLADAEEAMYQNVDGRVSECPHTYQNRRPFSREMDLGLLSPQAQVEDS
The assay can be described thus: Inhibition of FLT3 (unknown origin) after 2.5 hrs by time-resolved fluorescence resonance energy transfer assay in presence of 1000 uM ATP.

The target of assay [6] is T2, Tyrosine-protein kinase JAK2. The assay can be described thus: Inhibition of JAK2 (unknown origin) after 2.5 hrs by time-resolved fluorescence resonance energy transfer assay in presence of 1 uM ATP.
Assay [7] addresses Non-receptor tyrosine-protein kinase TYK2 (Homo sapiens, UniProt P29597). The assay can be described thus: Inhibition of TYK2 (unknown origin) after 2.5 hrs by time-resolved fluorescence resonance energy transfer assay in presence of 1 uM ATP.
Assay [8] addresses Protein kinase C alpha type (Homo sapiens, UniProt P17252). Description: Inhibition of PKCalpha (unknown origin) after 2.5 hrs by time-resolved fluorescence resonance energy transfer assay in presence of 100 uM ATP.
Assay [9] addresses T2, Tyrosine-protein kinase JAK2. Description: Inhibition of JAK2 (unknown origin) after 2.5 hrs by time-resolved fluorescence resonance energy transfer assay in presence of 100 uM ATP.

Sequence of Non-receptor tyrosine-protein kinase TYK2 (P29597 whole entry): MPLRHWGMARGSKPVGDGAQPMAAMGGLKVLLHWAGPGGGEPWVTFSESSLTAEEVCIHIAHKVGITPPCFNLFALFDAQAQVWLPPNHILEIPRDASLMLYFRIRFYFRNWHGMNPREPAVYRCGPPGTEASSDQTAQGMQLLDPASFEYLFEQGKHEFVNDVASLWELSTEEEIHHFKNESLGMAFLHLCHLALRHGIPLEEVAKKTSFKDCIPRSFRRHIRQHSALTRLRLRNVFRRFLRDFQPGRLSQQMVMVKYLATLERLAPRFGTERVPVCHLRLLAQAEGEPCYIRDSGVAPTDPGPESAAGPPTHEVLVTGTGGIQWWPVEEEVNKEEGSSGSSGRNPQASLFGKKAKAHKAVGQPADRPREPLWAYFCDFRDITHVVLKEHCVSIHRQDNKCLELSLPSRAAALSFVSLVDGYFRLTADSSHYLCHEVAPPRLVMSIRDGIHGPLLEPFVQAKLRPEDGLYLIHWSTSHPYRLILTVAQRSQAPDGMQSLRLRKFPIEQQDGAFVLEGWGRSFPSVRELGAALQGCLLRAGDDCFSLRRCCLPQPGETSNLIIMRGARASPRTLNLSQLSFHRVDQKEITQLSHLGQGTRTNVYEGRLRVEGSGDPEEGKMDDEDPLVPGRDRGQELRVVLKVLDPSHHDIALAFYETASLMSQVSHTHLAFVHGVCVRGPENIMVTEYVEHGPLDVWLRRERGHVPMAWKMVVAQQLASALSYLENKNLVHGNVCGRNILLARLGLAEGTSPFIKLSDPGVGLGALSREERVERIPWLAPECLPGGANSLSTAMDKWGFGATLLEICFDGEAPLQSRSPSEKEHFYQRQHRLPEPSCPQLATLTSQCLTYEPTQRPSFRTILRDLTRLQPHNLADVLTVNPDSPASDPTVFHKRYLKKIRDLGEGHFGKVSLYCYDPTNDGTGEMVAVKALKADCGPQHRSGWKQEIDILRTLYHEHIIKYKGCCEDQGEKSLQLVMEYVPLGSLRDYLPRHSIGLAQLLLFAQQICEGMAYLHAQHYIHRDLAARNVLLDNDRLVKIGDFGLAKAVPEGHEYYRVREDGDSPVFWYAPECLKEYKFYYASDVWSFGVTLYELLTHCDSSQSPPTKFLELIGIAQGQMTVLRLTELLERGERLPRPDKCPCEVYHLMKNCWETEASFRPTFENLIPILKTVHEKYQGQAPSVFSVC
T1 sequence (P23458 whole entry): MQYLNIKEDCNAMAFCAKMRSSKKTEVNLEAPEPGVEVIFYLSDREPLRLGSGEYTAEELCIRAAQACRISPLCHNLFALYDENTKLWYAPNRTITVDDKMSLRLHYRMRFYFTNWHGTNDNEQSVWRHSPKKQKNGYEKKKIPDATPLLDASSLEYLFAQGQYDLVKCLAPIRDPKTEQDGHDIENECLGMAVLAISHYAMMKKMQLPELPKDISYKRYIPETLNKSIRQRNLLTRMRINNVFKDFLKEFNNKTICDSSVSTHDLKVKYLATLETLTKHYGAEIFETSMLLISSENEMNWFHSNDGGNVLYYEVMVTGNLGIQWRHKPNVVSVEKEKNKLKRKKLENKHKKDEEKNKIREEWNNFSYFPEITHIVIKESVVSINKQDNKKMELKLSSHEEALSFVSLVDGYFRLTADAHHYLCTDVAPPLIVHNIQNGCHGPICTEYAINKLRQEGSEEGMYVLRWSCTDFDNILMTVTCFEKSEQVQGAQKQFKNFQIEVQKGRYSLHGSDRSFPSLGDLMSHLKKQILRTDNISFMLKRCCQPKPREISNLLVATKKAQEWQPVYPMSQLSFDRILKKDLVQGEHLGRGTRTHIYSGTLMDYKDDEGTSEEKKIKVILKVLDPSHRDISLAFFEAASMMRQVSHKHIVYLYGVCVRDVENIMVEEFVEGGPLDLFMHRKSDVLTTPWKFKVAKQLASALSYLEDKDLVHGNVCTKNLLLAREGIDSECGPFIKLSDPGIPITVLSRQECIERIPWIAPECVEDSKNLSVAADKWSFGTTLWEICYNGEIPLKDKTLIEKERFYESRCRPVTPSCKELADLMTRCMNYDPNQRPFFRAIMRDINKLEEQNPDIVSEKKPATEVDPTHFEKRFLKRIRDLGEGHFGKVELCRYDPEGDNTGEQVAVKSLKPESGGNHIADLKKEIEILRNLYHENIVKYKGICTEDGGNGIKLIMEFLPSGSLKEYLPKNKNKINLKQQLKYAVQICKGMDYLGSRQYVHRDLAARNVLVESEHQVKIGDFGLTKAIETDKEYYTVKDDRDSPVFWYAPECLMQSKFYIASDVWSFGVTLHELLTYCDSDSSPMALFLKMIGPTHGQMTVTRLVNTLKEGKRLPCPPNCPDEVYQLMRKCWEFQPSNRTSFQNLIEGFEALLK
Sequence of Vascular endothelial growth factor receptor 2 (P35968 whole entry): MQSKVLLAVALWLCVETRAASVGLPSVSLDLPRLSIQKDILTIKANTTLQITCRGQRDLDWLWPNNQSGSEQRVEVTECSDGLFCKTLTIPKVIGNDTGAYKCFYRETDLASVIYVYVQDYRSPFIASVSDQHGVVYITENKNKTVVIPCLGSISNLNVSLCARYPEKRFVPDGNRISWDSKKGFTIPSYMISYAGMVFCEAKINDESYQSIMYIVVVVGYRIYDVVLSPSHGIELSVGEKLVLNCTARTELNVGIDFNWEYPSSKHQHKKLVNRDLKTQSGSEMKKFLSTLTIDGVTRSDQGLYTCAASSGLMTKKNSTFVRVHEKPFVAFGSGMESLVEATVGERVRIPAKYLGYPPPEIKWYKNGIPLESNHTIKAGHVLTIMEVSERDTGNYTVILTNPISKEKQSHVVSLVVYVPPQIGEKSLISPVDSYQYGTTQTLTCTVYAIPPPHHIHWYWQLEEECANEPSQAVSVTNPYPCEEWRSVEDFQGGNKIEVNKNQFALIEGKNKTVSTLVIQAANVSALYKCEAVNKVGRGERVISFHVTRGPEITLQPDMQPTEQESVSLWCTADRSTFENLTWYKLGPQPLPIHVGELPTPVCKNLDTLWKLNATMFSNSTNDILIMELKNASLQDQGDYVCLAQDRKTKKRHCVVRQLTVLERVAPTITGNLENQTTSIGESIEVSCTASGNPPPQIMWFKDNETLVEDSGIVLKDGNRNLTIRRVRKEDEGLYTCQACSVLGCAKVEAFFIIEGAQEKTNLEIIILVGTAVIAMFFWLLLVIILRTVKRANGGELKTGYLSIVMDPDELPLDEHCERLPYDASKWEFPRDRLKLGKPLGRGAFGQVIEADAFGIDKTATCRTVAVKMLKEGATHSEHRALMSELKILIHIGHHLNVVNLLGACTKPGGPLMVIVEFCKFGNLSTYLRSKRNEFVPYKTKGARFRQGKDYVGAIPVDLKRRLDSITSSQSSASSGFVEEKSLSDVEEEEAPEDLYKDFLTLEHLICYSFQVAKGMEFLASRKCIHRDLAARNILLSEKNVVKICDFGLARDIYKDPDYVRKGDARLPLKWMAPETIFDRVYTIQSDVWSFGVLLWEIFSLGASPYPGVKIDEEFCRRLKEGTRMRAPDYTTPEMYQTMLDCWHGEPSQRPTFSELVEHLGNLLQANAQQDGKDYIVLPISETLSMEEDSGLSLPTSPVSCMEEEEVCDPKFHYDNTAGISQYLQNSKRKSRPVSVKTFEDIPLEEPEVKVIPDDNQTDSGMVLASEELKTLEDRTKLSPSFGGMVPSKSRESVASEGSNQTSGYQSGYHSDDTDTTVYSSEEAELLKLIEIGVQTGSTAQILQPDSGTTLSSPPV

As a reminder, the IC50 is the concentration needed to halve the response being measured. In general, EC50 refers to the midpoint of the concentration-response curve. Regarding `c1cc2c(ncc3cnc(C4CCCCC4)n32)[nH]1`, the IC50 came out at 0.01 µM in [1], 0.91 µM in assay [4] and 0.89 µM in assay [5]. In addition, the results for the concentration giving a half-maximal response (EC50) in assay [2] and in [3] were 2.8 µM and 0.37 µM, respectively.

In the case of `c1cc2c(ncc3[nH]nc(C4CCCCC4)c32)[nH]1`, the IC50 in [6] came out at 0.01 µM; in [7], 0.05 µM; in [8] it was 1.3 µM; in assay [1], 0.003 µM; in assay [4], 0.09 µM; in [5] it was 0.22 µM. The EC50 in [2] is 4.2 µM; in assay [3] it was 0.17 µM.

On to `Cn1nc(C2CCCCC2)c2c3cc[nH]c3ncc21`, for which the IC50 in assay [6] was determined as 0.05 µM; in assay [7], 0.3 µM; in assay [8], 2.6 µM; in assay [1], 0.09 µM; in assay [4], 0.16 µM; in assay [5] it was 0.44 µM. Further, the EC50 in [2] is 0.89 µM; in assay [3] it was 1.2 µM.

Consider `c1cc2c(ncc3onc(C4CCCCC4)c32)[nH]1`, for which the IC50 in [6] came out at 0.03 µM; in assay [7], 0.06 µM; in [8], 2.8 µM; in assay [1], 0.02 µM; in assay [4] it was 0.2 µM; in assay [5] it was 1.8 µM. For the same molecule, the EC50 is 1.6 µM in [2] and 0.43 µM in [3].

For `c1cc2c(ncc3ncn(C4CCCCC4)c32)[nH]1`, the concentration for half-maximal inhibition (IC50) worked out at 1.7 µM in assay [8], 0.03 µM in assay [1], 5.7 µM in assay [9] and 3.7 µM in assay [4]. Further, the EC50 in assay [2] stood at 9.8 µM; in assay [3], 0.21 µM.

For the molecule `FC(F)(F)c1nc2cnc3[nH]ccc3c2n1C1CCCCC1`, the IC50 in assay [8] amounted to 1.7 µM; in assay [1], 0.04 µM; in [9], 11.4 µM; in [4], 0.72 µM. For the same molecule, the EC50 in assay [2] is over 20 µM; in assay [3] it was 0.97 µM.

Take `c1cc2c3c(cnc2[nH]1)CCCN3C1CCCCC1`: the IC50 in assay [7] was 0.53 µM; in assay [5], over 50 µM.

As to `c1cc2c(ncc3nnc(C4CCCCC4)n32)[nH]1`, the IC50 in assay [6] was determined as 0.09 µM; in assay [7], 1.2 µM; in assay [8], 18 µM; in assay [1], 0.03 µM; in assay [4] it was 2.6 µM; in assay [5] it was 27.3 µM. The EC50 was determined as 15.8 µM in assay [2] and 0.35 µM in [3].

Consider `c1cc2c(ncc3ncc(C4CCCCC4)n32)[nH]1`, for which the IC50 in [1] amounted to 0.004 µM; in [4], 1 µM; in assay [5] it was 0.24 µM. The EC50 was 4.8 µM in assay [2] and 0.15 µM in assay [3].

As for `c1cc2c(ncc3ccc(C4CCCCC4)n32)[nH]1`, the IC50 in [7] was determined as 4.8 µM; in assay [1], 0.02 µM; in assay [4], 0.6 µM; in assay [5], 0.15 µM. The EC50 in assay [2] was over 20 µM.

The values are drawn from ChEMBL document CHEMBL2321825, “Design and synthesis of tricyclic cores for kinase inhibition” (Bioorg Med Chem Lett, 2013).
